{
  "source": "patent US20170306409A1",
  "about": "“CANCER PATIENT SELECTION FOR ADMINISTRATION OF WNT SIGNALING INHIBITORS USING RNF43 MUTATION STATUS” (NOVARTIS AG, priority 2012, published 2017)",
  "format_in_all_cases": "cell-based, human",
  "key": {"Axin2, KP4": {"test_system": "Axin2, KP4", "experiment": "Axin2 qPCR assay (pathway inhibition)", "procedure": "(§1) For reverse transcription and quantitative PCR (qPCR), total RNA was extracted from cells or tumors using the RNeasy Plus Mini Kit (Qiagen). 1 μg of RNA were reverse transcribed with Taqman Reverse Transcription Reagents (Applied Biosystems) according to the manufacturer's instruction. Quantitative PCR was performed in 12 μl reactions consisting of 0.6 μl of 20× Taqman probe and PCR primer mix, 6 μl 2× Taqman FAST Advanced Master Mix (Applied Biosystems), and 5.4 μl diluted cDNA template. The thermocycling conditions utilized were 20 seconds at 95° C., followed by 40 cycles of 1 second at 95° C. and 20 seconds at 60° C. All experiments were performed in quadruplicates. Gene expression analysis was performed using the comparative ΔΔCT method and normalized with the housekeeping gene GUSB or 18S. The Taqman probes were purchased from Applied Biosystems."}, "Axin2, QGP-1": {"test_system": "Axin2, QGP-1", "experiment": "Axin2 qPCR assay (pathway inhibition)", "procedure": "as §1"}, "Axin2, KP-1NL": {"test_system": "Axin2, KP-1NL", "experiment": "Axin2 qPCR assay (pathway inhibition)", "procedure": "as §1"}, "Axin2, KP3": {"test_system": "Axin2, KP3", "experiment": "Axin2 qPCR assay (pathway inhibition)", "procedure": "as §1"}, "Axin2, L3.3": {"test_system": "Axin2, L3.3", "experiment": "Axin2 qPCR assay (pathway inhibition)", "procedure": "as §1"}, "Axin2, KP2": {"test_system": "Axin2, KP2", "experiment": "Axin2 qPCR assay (pathway inhibition)", "procedure": "as §1"}, "Axin2, SU86.86": {"test_system": "Axin2, SU86.86", "experiment": "Axin2 qPCR assay (pathway inhibition)", "procedure": "as §1"}, "Axin2, SUIT-2": {"test_system": "Axin2, SUIT-2", "experiment": "Axin2 qPCR assay (pathway inhibition)", "procedure": "as §1"}, "Axin2, Capan-2": {"test_system": "Axin2, Capan-2", "experiment": "Axin2 qPCR assay (pathway inhibition)", "procedure": "as §1"}, "Axin2, CFPAC-1": {"test_system": "Axin2, CFPAC-1", "experiment": "Axin2 qPCR assay (pathway inhibition)", "procedure": "as §1"}, "Axin2, Capan-1": {"test_system": "Axin2, Capan-1", "experiment": "Axin2 qPCR assay (pathway inhibition)", "procedure": "as §1"}, "Axin2, HuPT3": {"test_system": "Axin2, HuPT3", "experiment": "Axin2 qPCR assay (pathway inhibition)", "procedure": "as §1"}, "Axin2, Panc10.05": {"test_system": "Axin2, Panc10.05", "experiment": "Axin2 qPCR assay (pathway inhibition)", "procedure": "as §1"}, "Axin2, DanG": {"test_system": "Axin2, DanG", "experiment": "Axin2 qPCR assay (pathway inhibition)", "procedure": "as §1"}, "Axin2, MIA CaPa-2": {"test_system": "Axin2, MIA CaPa-2", "experiment": "Axin2 qPCR assay (pathway inhibition)", "procedure": "as §1"}, "Axin2, SW1990": {"test_system": "Axin2, SW1990", "experiment": "Axin2 qPCR assay (pathway inhibition)", "procedure": "as §1"}, "Axin2, PaTu-8988S": {"test_system": "Axin2, PaTu-8988S", "experiment": "Axin2 qPCR assay (pathway inhibition)", "procedure": "as §1"}, "Axin2, PK59": {"test_system": "Axin2, PK59", "experiment": "Axin2 qPCR assay (pathway inhibition)", "procedure": "as §1"}, "Axin2, KP1-N": {"test_system": "Axin2, KP1-N", "experiment": "Axin2 qPCR assay (pathway inhibition)", "procedure": "as §1"}, "Axin2, Panc03.27": {"test_system": "Axin2, Panc03.27", "experiment": "Axin2 qPCR assay (pathway inhibition)", "procedure": "as §1"}, "Axin2, HPAFII": {"test_system": "Axin2, HPAFII", "experiment": "Axin2 qPCR assay (pathway inhibition)", "procedure": "as §1"}, "Axin2, PSN-1": {"test_system": "Axin2, PSN-1", "experiment": "Axin2 qPCR assay (pathway inhibition)", "procedure": "as §1"}, "Axin2, Panc04.03": {"test_system": "Axin2, Panc04.03", "experiment": "Axin2 qPCR assay (pathway inhibition)", "procedure": "as §1"}, "Axin2, BxPC3": {"test_system": "Axin2, BxPC3", "experiment": "Axin2 qPCR assay (pathway inhibition)", "procedure": "as §1"}, "Axin2, PANC-1": {"test_system": "Axin2, PANC-1", "experiment": "Axin2 qPCR assay (pathway inhibition)", "procedure": "as §1"}, "Axin2, HuPT4": {"test_system": "Axin2, HuPT4", "experiment": "Axin2 qPCR assay (pathway inhibition)", "procedure": "as §1"}, "Axin2, PL45": {"test_system": "Axin2, PL45", "experiment": "Axin2 qPCR assay (pathway inhibition)", "procedure": "as §1"}, "Axin2, PK1": {"test_system": "Axin2, PK1", "experiment": "Axin2 qPCR assay (pathway inhibition)", "procedure": "as §1"}, "Axin2, PaTu-8988T": {"test_system": "Axin2, PaTu-8988T", "experiment": "Axin2 qPCR assay (pathway inhibition)", "procedure": "as §1"}, "Axin2, T3M4": {"test_system": "Axin2, T3M4", "experiment": "Axin2 qPCR assay (pathway inhibition)", "procedure": "as §1"}, "Axin2, Panc05.04": {"test_system": "Axin2, Panc05.04", "experiment": "Axin2 qPCR assay (pathway inhibition)", "procedure": "as §1"}, "Axin2, PaTu-8902": {"test_system": "Axin2, PaTu-8902", "experiment": "Axin2 qPCR assay (pathway inhibition)", "procedure": "as §1"}, "Axin2, PK45H": {"test_system": "Axin2, PK45H", "experiment": "Axin2 qPCR assay (pathway inhibition)", "procedure": "as §1"}, "[1]": {"test_system": "AXIN2, pancreatic cancer cell lines", "experiment": "AXIN2 expression across pancreatic cancer cell line panel", "settings": "22 of 29 cell lines", "procedure": "as §1"}, "TCC-PAN2": {"test_system": "TCC-PAN2", "experiment": "pathway inhibition by LGK974 (Table 4)"}, "RNF43 mRNA, YAPC cells": {"test_system": "RNF43 mRNA, YAPC cells", "experiment": "quantitative RT-PCR gene expression analysis", "settings": "1 μM of LGK974", "procedure": "FIG. 4(a) is a bar graph showing that the depletion of β-catenin decreases mRNA level of AXIN2 and RNF43. Cells were treated with siRNA, and relative mRNA levels of indicated genes were analyzed by quantitative RT-PCR. […] YAPC cells were treated with 3 μM of IWP2 or 1 μM of LGK974, and subjected to gene expression analysis by quantitative RT-PCR.\nas §1\nConsistent with this observation, treatment of Porcupine inhibitor IWP2 or LGK974 increased the cell surface level of Frizzled and decreased the mRNA levels of AXIN2 and RNF43. See, FIG. 4(b). […]"}},
  "data": [
    {"smiles": "Cc1cc(-c2ncc(CC(=O)Nc3ccc(-c4cnccn4)cn3)cc2C)ccn1", "note": "[LGK974, 2-[5-methyl-6-(2-methylpyridin-4-yl)pyridin-3-yl]-N-[5-(pyrazin-2-yl)pyridin-2-yl]acetamide]", "values": [
      {"measurement": "Pathway inhibition in Axin2 qPCR assay", "setting": "Axin2, KP4", "value": "No"},
      {"measurement": "Pathway inhibition in Axin2 qPCR assay", "setting": "Axin2, QGP-1", "value": "No"},
      {"measurement": "Pathway inhibition in Axin2 qPCR assay", "setting": "Axin2, KP-1NL", "value": "Yes"},
      {"measurement": "Pathway inhibition in Axin2 qPCR assay", "setting": "Axin2, KP3", "value": "Yes"},
      {"measurement": "Pathway inhibition in Axin2 qPCR assay", "setting": "Axin2, L3.3", "value": "No"},
      {"measurement": "Pathway inhibition in Axin2 qPCR assay", "setting": "Axin2, KP2", "value": "Yes"},
      {"measurement": "Pathway inhibition in Axin2 qPCR assay", "setting": "Axin2, SU86.86", "value": "Yes"},
      {"measurement": "Pathway inhibition in Axin2 qPCR assay", "setting": "Axin2, SUIT-2", "value": "Yes"},
      {"measurement": "Pathway inhibition in Axin2 qPCR assay", "setting": "Axin2, Capan-2", "value": "Yes"},
      {"measurement": "Pathway inhibition in Axin2 qPCR assay", "setting": "Axin2, CFPAC-1", "value": "No"},
      {"measurement": "Pathway inhibition in Axin2 qPCR assay", "setting": "Axin2, Capan-1", "value": "No"},
      {"measurement": "Pathway inhibition in Axin2 qPCR assay", "setting": "Axin2, HuPT3", "value": "Yes"},
      {"measurement": "Pathway inhibition in Axin2 qPCR assay", "setting": "Axin2, Panc10.05", "value": "Yes"},
      {"measurement": "Pathway inhibition in Axin2 qPCR assay", "setting": "Axin2, DanG", "value": "No"},
      {"measurement": "Pathway inhibition in Axin2 qPCR assay", "setting": "Axin2, MIA CaPa-2", "value": "No"},
      {"measurement": "Pathway inhibition in Axin2 qPCR assay", "setting": "Axin2, SW1990", "value": "Yes"},
      {"measurement": "Pathway inhibition in Axin2 qPCR assay", "setting": "Axin2, PaTu-8988S", "value": "Yes"},
      {"measurement": "Pathway inhibition in Axin2 qPCR assay", "setting": "Axin2, PK59", "value": "Yes"},
      {"measurement": "Pathway inhibition in Axin2 qPCR assay", "setting": "Axin2, KP1-N", "value": "Yes"},
      {"measurement": "Pathway inhibition in Axin2 qPCR assay", "setting": "Axin2, Panc03.27", "value": "Yes"},
      {"measurement": "Pathway inhibition in Axin2 qPCR assay", "setting": "Axin2, HPAFII", "value": "Yes"},
      {"measurement": "Pathway inhibition in Axin2 qPCR assay", "setting": "Axin2, PSN-1", "value": "Yes"},
      {"measurement": "Pathway inhibition in Axin2 qPCR assay", "setting": "Axin2, Panc04.03", "value": "No"},
      {"measurement": "Pathway inhibition in Axin2 qPCR assay", "setting": "Axin2, BxPC3", "value": "Yes"},
      {"measurement": "Pathway inhibition in Axin2 qPCR assay", "setting": "Axin2, PANC-1", "value": "Yes"},
      {"measurement": "Pathway inhibition in Axin2 qPCR assay", "setting": "Axin2, HuPT4", "value": "No"},
      {"measurement": "Pathway inhibition in Axin2 qPCR assay", "setting": "Axin2, PL45", "value": "No"},
      {"measurement": "Pathway inhibition in Axin2 qPCR assay", "setting": "Axin2, PK1", "value": "Yes"},
      {"measurement": "Pathway inhibition in Axin2 qPCR assay", "setting": "Axin2, PaTu-8988T", "value": "Yes"},
      {"measurement": "Pathway inhibition in Axin2 qPCR assay", "setting": "Axin2, T3M4", "value": "No"},
      {"measurement": "Pathway inhibition in Axin2 qPCR assay", "setting": "Axin2, Panc05.04", "value": "Yes"},
      {"measurement": "Pathway inhibition in Axin2 qPCR assay", "setting": "Axin2, PaTu-8902", "value": "Yes"},
      {"measurement": "Pathway inhibition in Axin2 qPCR assay", "setting": "Axin2, PK45H", "value": "No"},
      {"measurement": "share of pancreatic cancer cell lines with decreased expression of AXIN2", "setting": "[1]", "value": 76, "unit": "%"},
      {"measurement": "Pathway inhibition", "setting": "TCC-PAN2", "value": "Yes"},
      {"measurement": "mRNA level of RNF43", "setting": "RNF43 mRNA, YAPC cells", "value": "decreased"}
    ]}
  ]
}
